The experiment concerns glycogen phosphorylase, muscle form (rabbit). Kind of experiment: Inhibitory activity against muscle Glycogen Phosphorylase b; no inhibition. As to conditions: Muscle tissue.

Calls of active or inactive are those of the source. The rule behind the calls is not given here.

As to `NC(=O)[C@]1(O)OC[C@@H](O)[C@H](O)C1O` (stereo partly specified), the NI entry was “inactive”.
